# Assay results published in publication PMC6886737 (Bioorganic & medicinal chemistry letters, 2019).
# What was measured:
# HCT116 cell line = experiment: CellTiter-Glo proliferation assay; format: cell-based
# CDK14 [1] = biological target: T1, CDK14 (Homo sapiens, UniProt O94921); experiment: Biotin JNK-IN-7 pull-down assay, cellular CDK14 engagement; conditions: for activity in the cellular pull-down assay / concentration at which CDK14 pulldown is blocked / effects shown: cells treated 4 h
# Target sequence in this assay (O94921 whole entry): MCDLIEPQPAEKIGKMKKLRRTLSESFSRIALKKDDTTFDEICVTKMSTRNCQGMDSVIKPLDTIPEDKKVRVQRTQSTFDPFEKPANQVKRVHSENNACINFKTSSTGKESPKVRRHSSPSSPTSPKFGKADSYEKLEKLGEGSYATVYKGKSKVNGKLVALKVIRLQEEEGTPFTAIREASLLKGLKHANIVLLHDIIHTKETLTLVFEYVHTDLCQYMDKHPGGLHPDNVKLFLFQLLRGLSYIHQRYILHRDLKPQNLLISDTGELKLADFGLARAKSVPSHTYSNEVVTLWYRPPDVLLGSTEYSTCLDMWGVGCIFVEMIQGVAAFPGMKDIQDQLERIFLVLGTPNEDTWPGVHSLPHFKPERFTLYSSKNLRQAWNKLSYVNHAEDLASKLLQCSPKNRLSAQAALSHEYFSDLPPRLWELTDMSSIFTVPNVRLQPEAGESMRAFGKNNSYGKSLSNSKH
# CDK14 [2] = biological target: T1, CDK14; experiment: LanthaScreen CDK14 binding assay
# Target sequence in this assay (O94921 whole entry): as above
# Target sequence in this assay (Q8ND76 whole entry partner): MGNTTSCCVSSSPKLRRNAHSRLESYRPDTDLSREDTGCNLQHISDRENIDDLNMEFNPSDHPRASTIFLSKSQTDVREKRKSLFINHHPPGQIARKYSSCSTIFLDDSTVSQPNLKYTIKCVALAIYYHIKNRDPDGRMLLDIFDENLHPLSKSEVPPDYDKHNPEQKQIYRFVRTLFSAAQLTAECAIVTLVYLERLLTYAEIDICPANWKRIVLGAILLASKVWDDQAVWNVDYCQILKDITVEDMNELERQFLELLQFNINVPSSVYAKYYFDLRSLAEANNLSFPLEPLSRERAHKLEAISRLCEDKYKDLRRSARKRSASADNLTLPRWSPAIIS
# CDK16 = CDK16 (Homo sapiens, UniProt Q00536); experiment: KiNativ profiling; format: cell-based; conditions: read-out: CDK16 percent inhibition relative to DMSO
# CDK2 = CDK2 (Homo sapiens, UniProt P24941); experiment: KiNativ profiling; format: cell-based; conditions: read-out: CDK2 percent inhibition relative to DMSO
# CDK10 = CDK10 (Homo sapiens, UniProt Q15131); experiment: KiNativ profiling; format: cell-based; conditions: read-out: CDK10 percent inhibition relative to DMSO
# Chain of CDK10 (Q15131 whole entry): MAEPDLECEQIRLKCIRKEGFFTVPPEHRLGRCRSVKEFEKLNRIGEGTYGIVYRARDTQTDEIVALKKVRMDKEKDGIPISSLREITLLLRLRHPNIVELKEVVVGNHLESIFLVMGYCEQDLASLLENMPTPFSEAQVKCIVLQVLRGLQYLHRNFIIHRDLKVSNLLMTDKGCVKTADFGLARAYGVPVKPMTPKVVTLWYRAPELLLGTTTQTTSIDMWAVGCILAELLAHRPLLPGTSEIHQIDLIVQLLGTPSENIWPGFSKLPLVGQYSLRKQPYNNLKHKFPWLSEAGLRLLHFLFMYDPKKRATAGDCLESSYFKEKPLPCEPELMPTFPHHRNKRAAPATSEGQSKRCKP
# Chain of CDK16 (Q00536 whole entry): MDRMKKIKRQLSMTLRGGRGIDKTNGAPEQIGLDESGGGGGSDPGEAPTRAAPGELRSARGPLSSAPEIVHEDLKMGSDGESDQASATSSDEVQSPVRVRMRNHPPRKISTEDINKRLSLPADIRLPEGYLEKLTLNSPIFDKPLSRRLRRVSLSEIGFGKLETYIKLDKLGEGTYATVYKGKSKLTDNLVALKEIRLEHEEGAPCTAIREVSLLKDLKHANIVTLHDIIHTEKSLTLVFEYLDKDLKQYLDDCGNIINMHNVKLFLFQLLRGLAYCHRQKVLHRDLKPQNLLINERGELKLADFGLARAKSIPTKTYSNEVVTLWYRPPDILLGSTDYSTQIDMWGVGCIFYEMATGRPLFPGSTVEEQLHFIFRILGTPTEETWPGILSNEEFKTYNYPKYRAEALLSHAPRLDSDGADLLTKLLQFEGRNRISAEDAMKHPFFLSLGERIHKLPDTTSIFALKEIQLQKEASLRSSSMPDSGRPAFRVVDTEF
structure (smiles),measurement,setting,value
CN(C)CC/C=C/C(=O)Nc1cccc(N2CCC(NC(=O)c3n[nH]cc3NC(=O)c3c(Cl)cccc3Cl)CC2)c1.O=C(O)C(F)(F)F [Compound 56],HCT116 toxicity,HCT116 cell line,low HCT116 toxicity
same,activity in the cellular pull-down assay,CDK14 [1],"not active, or weakly active"
CN(C)C/C=C/C(=O)Nc1cccc(S(=O)(=O)N2CCC(NC(=O)c3n[nH]cc3NC(=O)c3ccccc3)CC2)c1.O=C(O)C(F)(F)F [Compound 107],CDK14 binding potency,CDK14 [2],potent CDK14 inhibition
same,HCT116 toxicity,HCT116 cell line,reduced HCT116 toxicity
C=CC(=O)Nc1cccc(C(=O)Nc2ccc(NC(=O)c3n[nH]cc3NC(=O)c3c(Cl)cccc3Cl)c(C)c2)c1.O=C(O)C(F)(F)F [Compound 47],CDK14 binding potency,CDK14 [2],not tolerated by CDK14
Cc1cc(NC(=O)c2cccc(NC(=O)/C=C/CN(C)C)c2)ccc1NC(=O)c1n[nH]cc1NC(=O)c1c(Cl)cccc1Cl.O=C(O)C(F)(F)F [Compound 48],CDK14 binding potency,CDK14 [2],not tolerated by CDK14
CN(C)C/C=C/C(=O)Nc1cccc(C(=O)Nc2ccc(NC(=O)c3n[nH]cc3NC(=O)c3c(Cl)cccc3Cl)cc2)c1.O=C(O)C(F)(F)F [Compound 46],concentration at which CDK14 pulldown is blocked / effects shown,CDK14 [1],500 to 1000 nM
"O=C(NC1CCNCC1)c1n[nH]cc1NC(=O)c1c(Cl)cccc1Cl [AT7519, N-(4-piperidinyl)-4-(2,6-dichlorobenzoylamino)-1H-pyrazole-3-carboxamide, reference compound]",CDK14 cellular engagement screen result,"CDK14 [1]; 1 μM, screen of library of reported CDK inhibitors",efficient CDK14 inhibitor
CN(C)C/C=C/C(=O)Nc1cccc(S(=O)(=O)N2CCC(NC(=O)c3n[nH]cc3NC(=O)c3c(Cl)cc(Cl)cc3Cl)CC2)c1.O=C(O)C(F)(F)F [Compound 100],inhibition at 1 µM,CDK16,> 75%
same,inhibition at 1 µM,CDK2,> 75%
same,inhibition at 1 µM,CDK10,> 75%
same,concentration for complete inhibition of CDK14 pull-down,CDK14 [1],below 1 μM
C=CC(=O)Nc1cccc(C(=O)N2CCC(NC(=O)c3n[nH]cc3NC(=O)c3c(Cl)cccc3Cl)CC2)c1.O=C(O)C(F)(F)F [Compound 27],concentration at which CDK14 pulldown is blocked / effects shown,CDK14 [1],500 to 1000 nM
CN(C)CC/C=C/C(=O)Nc1ccc(N2CCC(NC(=O)c3n[nH]cc3NC(=O)c3c(Cl)cccc3Cl)CC2)cc1.O=C(O)C(F)(F)F [Compound 54],HCT116 toxicity,HCT116 cell line,low HCT116 toxicity
CN(C)CC/C=C/C(=O)Nc1ccc(S(=O)(=O)N2CC[C@@H](NC(=O)c3n[nH]cc3NC(=O)c3c(Cl)cccc3Cl)C2)cc1.O=C(O)C(F)(F)F [Compound 68],activity in the cellular pull-down assay,CDK14 [1],"not active, or weakly active"
